Test system: T1, 26S proteasome (WT proteasome)
T1 construct: gene RPT1; native 26S holoenzyme (19S + 20S) purified by 3xFLAG-tagged Rpn11; with Ubiquitin carboxyl-terminal hydrolase RPN11
Assay: SDS-PAGE fluorescence degradation assay of Cy5-labelled ubiquitinated substrate
Assay type: biochemical, Saccharomyces cerevisiae
Details: 1 mM ATPγS in place of ATP regeneration system; 100 nM proteasome, 20 nM substrate, 5 mM MgCl2, pH 7.5, 30 °C; nonhydrolyzable ATP analog

## Nc1ncnc2c1ncn2[C@@H]1O[C@H](COP(=O)(O)OP(=O)(O)OP(O)(O)=S)[C@@H](O)[C@H]1O [ATPγS]
  SDS-PAGE fluorescence degradation assay of Cy5-labelled ubiquitinated substrate: ATPγS considerably slowed degradation of the ubiquitinated-Rpn4-containing substrate
